Test results: ChEMBL document CHEMBL1201862, “PubChem BioAssay data set” (2004)
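Following 48 hours of exposure in 96-well plates, responses at five concentrations were used to interpolate endpoints linearly. Abbreviation: GI50, concentration required for 50% inhibition of growth.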 Calls of active or inactive are those of the source. Cut-off read from the data, not from the text of the source: active = GI50 up to about 1.1 µM and inactive = higher.

Tests used:
Experiment in all cases: inhibition of tumour cell growth, NCI panel, 48 h
OVCAR-5 = system: OVCAR-5
SK-MEL-28 = system: SK-MEL-28
HT-29 = system: HT-29
RXF 393 = system: RXF 393
CCRF-CEM = system: CCRF-CEM
NCI-H23 = system: NCI-H23
NCI/ADR-RES = system: NCI/ADR-RES
MOLT-4 = system: MOLT-4
CAKI-1 = system: CAKI-1
T47D = system: T47D
COLO 205 = system: COLO 205
A549 = system: A549
OVCAR-3 = system: OVCAR-3
SF-539 = system: SF-539
SR = system: SR
MDA-MB-435 = system: MDA-MB-435
RPMI-8226 = system: RPMI-8226
K562 = system: K562
HCC 2998 = system: HCC 2998
SK-MEL-2 = system: SK-MEL-2
SF-268 = system: SF-268
M14 = system: M14
SF-295 = system: SF-295
KM12 = system: KM12
NCI-H226 = system: NCI-H226
HCT-116 = system: HCT-116
UACC-257 = system: UACC-257
OVCAR-8 = system: OVCAR-8
SK-MEL-5 = system: SK-MEL-5
Hs-578T = system: Hs-578T
OVCAR-4 = system: OVCAR-4
IGROV-1 = system: IGROV-1
A498 = system: A498
MDA-N = system: MDA-N
SW-620 = system: SW-620
MDA-MB-231 = system: MDA-MB-231
SNB-19 = system: SNB-19
U-251 = system: U-251
LOX IMVI = system: LOX IMVI
HOP-92 = system: HOP-92
HCT-15 = system: HCT-15
EKVX = system: EKVX
PC-3 = system: PC-3
SN12C = system: SN12C
HOP-62 = system: HOP-62
ACHN = system: ACHN
786-0 = system: 786-0
HL-60 = system: HL-60
UO-31 = system: UO-31
MCF7 = system: MCF7
SK-OV-3 = system: SK-OV-3
UACC-62 = system: UACC-62
DU-145 = system: DU-145
TK-10 = system: TK-10
Malme-3M = system: Malme-3M
SNB-75 = system: SNB-75
BT-549 = system: BT-549
NCI-H522 = system: NCI-H522
NCI-H460 = system: NCI-H460

## O=C/C=C/c1ccco1
OVCAR-5
  GI50: > 100 µM (inactive)
SK-MEL-28
  GI50: > 100 µM (inactive)
HT-29
  GI50: > 100 µM (inactive)
RXF 393
  GI50: > 100 µM (inactive)
CCRF-CEM
  GI50: 9.48 µM (inactive)
NCI-H23
  GI50: > 100 µM (inactive)
NCI/ADR-RES
  GI50: > 100 µM (inactive)
MOLT-4
  GI50: > 100 µM (inactive)
CAKI-1
  GI50: > 100 µM (inactive)
T47D
  GI50: > 100 µM (inactive)
COLO 205
  GI50: > 100 µM (inactive)
A549
  GI50: > 100 µM (inactive)
OVCAR-3
  GI50: > 100 µM (inactive)
SF-539
  GI50: 94.8 µM (inactive)
SR
  GI50: 31.3 µM (inactive)
MDA-MB-435
  GI50: > 100 µM (inactive)
RPMI-8226
  GI50: > 100 µM (inactive)
K562
  GI50: > 100 µM (inactive)
HCC 2998
  GI50: > 100 µM (inactive)
SK-MEL-2
  GI50: > 100 µM (inactive)
SF-268
  GI50: > 100 µM (inactive)
M14
  GI50: > 100 µM (inactive)
SF-295
  GI50: 61.8 µM (inactive)
KM12
  GI50: > 100 µM (inactive)
NCI-H226
  GI50: > 100 µM (inactive)
HCT-116
  GI50: > 100 µM (inactive)
UACC-257
  GI50: > 100 µM (inactive)
OVCAR-8
  GI50: > 100 µM (inactive)
SK-MEL-5
  GI50: > 100 µM (inactive)
Hs-578T
  GI50: > 100 µM (inactive)
OVCAR-4
  GI50: > 100 µM (inactive)
IGROV-1
  GI50: > 100 µM (inactive)
A498
  GI50: > 100 µM (inactive)
MDA-N
  GI50: > 100 µM (inactive)
SW-620
  GI50: > 100 µM (inactive)
MDA-MB-231
  GI50: > 100 µM (inactive)
SNB-19
  GI50: > 100 µM (inactive)
U-251
  GI50: 96.8 µM (inactive)
LOX IMVI
  GI50: > 100 µM (inactive)
HOP-92
  GI50: > 100 µM (inactive)
HCT-15
  GI50: > 100 µM
EKVX
  GI50: > 100 µM (inactive)
PC-3
  GI50: > 100 µM (inactive)
SN12C
  GI50: > 100 µM (inactive)
HOP-62
  GI50: > 100 µM (inactive)
ACHN
  GI50: > 100 µM (inactive)
786-0
  GI50: > 100 µM (inactive)
HL-60
  GI50: 5.56 µM (inactive)
UO-31
  GI50: > 100 µM (inactive)
MCF7
  GI50: > 100 µM (inactive)
SK-OV-3
  GI50: > 100 µM (inactive)
UACC-62
  GI50: > 100 µM (inactive)
DU-145
  GI50: > 100 µM (inactive)
TK-10
  GI50: > 100 µM (inactive)
Malme-3M
  GI50: > 100 µM (inactive)
SNB-75
  GI50: > 100 µM (inactive)
BT-549
  GI50: > 100 µM (inactive)
NCI-H522
  GI50: > 100 µM (inactive)

## COC(=O)C1CC23CCCN4CCC5(c6ccccc6N(C=O)C15CC2)C43 (stereo unspecified)
OVCAR-5
  GI50: > 100 µM (inactive)
SK-MEL-28
  GI50: > 100 µM (inactive)
HT-29
  GI50: > 100 µM (inactive)
RXF 393
  GI50: > 100 µM (inactive)
CCRF-CEM
  GI50: > 100 µM (inactive)
NCI-H23
  GI50: > 100 µM (inactive)
NCI/ADR-RES
  GI50: > 100 µM (inactive)
MOLT-4
  GI50: > 100 µM (inactive)
CAKI-1
  GI50: > 100 µM (inactive)
T47D
  GI50: > 100 µM (inactive)
COLO 205
  GI50: > 100 µM (inactive)
A549
  GI50: > 100 µM (inactive)
OVCAR-3
  GI50: > 100 µM (inactive)
SF-539
  GI50: > 100 µM (inactive)
SR
  GI50: > 100 µM (inactive)
MDA-MB-435
  GI50: > 100 µM (inactive)
RPMI-8226
  GI50: > 100 µM (inactive)
HCC 2998
  GI50: > 100 µM (inactive)
SK-MEL-2
  GI50: > 100 µM (inactive)
SF-268
  GI50: > 100 µM (inactive)
M14
  GI50: > 100 µM (inactive)
SF-295
  GI50: > 100 µM (inactive)
KM12
  GI50: > 100 µM (inactive)
NCI-H226
  GI50: > 100 µM (inactive)
HCT-116
  GI50: > 100 µM (inactive)
UACC-257
  GI50: > 100 µM (inactive)
OVCAR-8
  GI50: > 100 µM (inactive)
SK-MEL-5
  GI50: > 100 µM (inactive)
Hs-578T
  GI50: > 100 µM (inactive)
OVCAR-4
  GI50: > 100 µM (inactive)
IGROV-1
  GI50: > 100 µM (inactive)
A498
  GI50: > 100 µM (inactive)
MDA-N
  GI50: > 100 µM (inactive)
SW-620
  GI50: > 100 µM (inactive)
MDA-MB-231
  GI50: > 100 µM (inactive)
SNB-19
  GI50: > 100 µM (inactive)
U-251
  GI50: > 100 µM (inactive)
LOX IMVI
  GI50: > 100 µM (inactive)
HOP-92
  GI50: > 100 µM (inactive)
HCT-15
  GI50: > 100 µM
EKVX
  GI50: > 100 µM (inactive)
PC-3
  GI50: > 100 µM (inactive)
SN12C
  GI50: > 100 µM (inactive)
HOP-62
  GI50: > 100 µM (inactive)
ACHN
  GI50: > 100 µM (inactive)
786-0
  GI50: > 100 µM (inactive)
HL-60
  GI50: > 100 µM (inactive)
UO-31
  GI50: > 100 µM (inactive)
MCF7
  GI50: > 100 µM (inactive)
SK-OV-3
  GI50: > 100 µM (inactive)
NCI-H460
  GI50: > 100 µM (inactive)
UACC-62
  GI50: > 100 µM (inactive)
DU-145
  GI50: > 100 µM (inactive)
TK-10
  GI50: > 100 µM (inactive)
Malme-3M
  GI50: > 100 µM (inactive)
SNB-75
  GI50: > 100 µM (inactive)
BT-549
  GI50: > 100 µM (inactive)
NCI-H522
  GI50: > 100 µM (inactive)
